Data on two molecules can be found in patent US12569563B2, “Selective HDAC6 degraders and methods of use thereof” (DANA-FARBER CANCER INSTITUTE, INC., priority 2019, dated 2026).

Experiment [1] addresses T1, CRBN (Homo sapiens, UniProt Q96SW2).
T1 construct: endogenous in cells; host or cells: Flp-In 293 cells stably expressing BRD4BD2-eGFP-P2A-mCherry
Put plainly: Cellular CRBN engagement assay (competition with dBET6, BRD4BD2-eGFP reporter). In kind it is cell-based. The following applies: Flip-In 293 BRD4BD2-eGFP cells, 100 nM dBET6, 5 h. The source says:
The cellular CRBN engagement assay measures the cellular binding affinity which is the combination of the compound's cell permeability and their binding affinity to CRBN. This is done by measuring the ability of thalidomide-based degrader molecules to compete with pan-BET bromodomain degrader dBET6 (Nowak et al., Nat. Chem. Biol. 14:706-714 (2018)) for CRBN binding in cells. If no degrader compound is present in the cell, BRD4BRD2-eGFP is degraded by dBET6 via the proteasome system. […]
Cells were seeded at 30-50% confluency in either 24, 48 or 96 well plates (3524, 3548, 3596 respectively, Costar) a day before compound treatment. The inventive compounds were titrated in the presence of 100 nM dBET6 and then were incubated with cells for 5 h following trypsinization and resuspension in DMEM media, transferred into 96-well plates (353910, Falcon®) and analyzed by flow cytometer (Guava® easyCyte™ HT, Millipore®). Signal from at least 3000 events per well was acquired and the eGFP and mCherry florescence monitored. Data was analyzed using FlowJo® (FlowJo®, LCC). Forward and side scatter outliers, frequently associated with cell debris, were removed leaving >90% of total cells, followed by removal of eGFP and mCherry signal outliers, leaving 88-90% of total cells creating the set used for quantification. […]

For experiment [2], the system named is other identified HDAC proteins. As to the kind of experiment: Multiplexed TMT mass spectrometry proteomics in Kelly cells, other HDAC abundance. It counts as cell-based, human. The following applies: 1 μM, 2, 4, 8, and 16 hours. The procedure:
Lysis buffer (8 M Urea, 50 mM NaCl, 50 mM 4-(2hydroxyethyl)-1-piperazineethanesulfonic acid (EPPS) pH 8.5, protease and phosphatase inhibitors from Roche®) were added to the cell pellets and homogenized by 20 passes through a 21 gauge (1.25 in. long) needle to achieve a cell lysate with a protein concentration between 1-4 mg mL^−1. A micro-BCA assay (Pierce™) was used to determine the final protein concentration in the cell lysate. 200 μg of protein for each sample were reduced and alkylated as described above.
Proteins were precipitated using methanol/chloroform. Four volumes of methanol were added to the cell lysate, followed by one volume of chloroform, and finally three volumes of water. The mixture was vortexed and centrifuged to separate the chloroform phase from the aqueous phase. […]
Anhydrous ACN was added to each peptide sample to a final concentration of 30% v/v, and labeling was induced with the addition of TMT reagent to each sample at a ratio of 1:4 peptide:TMT label. […] The sample channels were combined at a 1:1:1:1:1:1:1:1:1:1:1 ratio, desalted using Cis solid phase extraction cartridges (Waters) and analyzed by LC-MS for channel ratio comparison. Samples were then combined using the adjusted volumes determined in the channel ratio analysis and dried down in a speed vacuum. […]

With `CN(C(=O)CCCCCCCNc1cccc2c1C(=O)N(C1CCC(=O)NC1=O)C2=O)c1ccc(NC(=O)CCCCCCC(=O)NO)cc1` (centres unmarked) [Compound 3, N^1-(4-(8-((2-(2,6-dioxopiperidin-3-yl)-1,3-dioxoisoindolin-4-yl)amino)-N-methyloctanamido)phenyl)-N^8-hydroxyoctanediamide], the concentration for half-maximal inhibition (IC50) in experiment [1] was found to be 1630 nM. On to `CN(C(=O)CCCNc1cccc2c1C(=O)N(C1CCC(=O)NC1=O)C2=O)c1ccc(NC(=O)CCCCCCC(=O)NO)cc1` (centres unmarked) [Compound 1, N^1-(4-(4-((2-(2,6-dioxopiperidin-3-yl)-1,3-dioxoisoindolin-4-yl)amino)-N-methylbutanamido)phenyl)-N^8-hydroxyoctanediamide], for which the “change in cellular protein levels of other identified HDAC proteins (heat map FIG. 5)” value in experiment [2] is given as “did not affect the cellular protein levels of the other identified HDAC proteins”.
